Data as given in patent publication EP0752465A1, “Betaine esters for delivery of alcohols” (THE PROCTER & GAMBLE COMPANY, priority 1995, dated 1997).
Read-outs that look alike come from different tables or passages of the source.

Experiment: Hydrolysis rate of betaine ester, pH-stat titrator at constant pH and temperature
Format: physicochemical
Settings: for profile of hydrolysis: dependence on pH
Experimental: Test realised under pH-stat configuartion, at controlled temperature (40°C). Concentration in betaine ester used 1.5.10^-2 mol/l
[formula] Test conditions: C12 BEG added to a solution (pH 10.5) of sodium stearate in distilled water. pH and temperature maintained constant all along the test. Percentage of C12 BEG hydrolysed assessed using an automatic pH stat titrator. Concentrations used: C12 BEG 1.25 10^-2 mol/l Sodium stearate: 1 equivalent 1.25 10^-2 mol/l 2 equivalents 2.5 10^-2 mol/l
[formula] • Hydrolysis rate determined with a Radiometer pH stat. • Temperature (40°C) and pH (10.5) maintained constant. Concentration in C12 BEG or new ion pair C12 BEG/DS: 10^-3 mol/l. • Mixture anionic/nonionic: sodium dodecylsulfate (0.43 g/l), sodium stearate (0.013 g/l), alkylethoxylate (Dobanol 45 7 from Shell, 0.38 g/l), N-cocoyl-N-methylglucamine (0.16 g/l). • Kinetics of hydrolysis of C12 BEG/DS, with or without surfactants all follow a first order in [C12BEG/DS].

[1] = 40°C, pH 10.5, with 1 equivalent of sodium dodecylsulfate
[2] = 40°C, pH 10.5, with 3 equivalents of sodium dodecylsulfate
[3] = 40°C, pH 10.5, with 5 equivalents of sodium dodecylsulfate
[4] = 40°C, pH 10.5, with 10 equivalents of sodium dodecylsulfate
[5] = 40°C, pH 8.5, 1.25 10^-2 mol/l, alone
[6] = 40°C, pH 8.5, with 1 equivalent sodium stearate
[7] = 40°C, pH 8.5, with 2 equivalent sodium stearate
[8] = 40°C, pH 10.5, 1.25 10^-2 mol/l, with 2 equivalents of sodium dodecylsulfate
[9] = 40°C, pH 10.5, 1.25 10^-2 mol/l, with 4 equivalents of sodium dodecylsulfate
[10] = 40°C, pH 10.5, 1.25 10^-2 mol/l, with 9 equivalents of sodium dodecylsulfate
[11] = 40°C, pH 10.5, 10^-3 mol/l, with mixture anionic/nonionic
[12] = 40°C, pH 10.5, 10^-3 mol/l, with sodium dodecylsulfate only
[13] = 40°C, pH 10.5, ion pair 1.25 10^-2 mol/l alone
[14] = 40°C, pH 10.5, ion pair 10^-3 mol/l alone

In the case of `CC(C)=CCC/C(C)=C/COC(=O)C[N+](C)(C)C.[Cl-]` [BEG, geranyloxycarbonyl-N,N,N-trimethylmethanaminium chloride], the k (40°C, pH 10.5, alone) was 3950 mol^- ^1.l.min^-1, the “kobs at pH 10.5” value (40°C, pH 10.5, alone) was 1.25 min^-1 and the k [1] was 202 mol^- ^1.l.min^-1. For the same molecule, the “kobs at pH 10.5” value [1] was 0.064 min^-1, the k [2] was 35 mol^- ^1.l.min^-1 and the “kobs at pH 10.5” value [2] was 0.0111 min^-1. For the same molecule, the k [3] was 23.5 mol^- ^1.l.min^-1, the “kobs at pH 10.5” value [3] was 0.0074 min^-1 and the k [4] was 21 mol^- ^1.l.min^-1. For the same molecule, the “kobs at pH 10.5” value [4] was 0.0067 min^-1, the half-life (buffer, pH 10.5, 40°C, pH 10.5, alone, read-out: t1/2 at pH 10.5) was ~0.5 min and the profile of hydrolysis was “very dependent on pH”. For the same molecule, the Hydrolysis profile (pH-stat, 40°C, betaine ester 1.5.10^-2 mol/l) was “very pH dependent”, the half-life (solution with 1 equivalent sodium dodecylsulfate, pH 10.5, 40°C, pH 10.5, with 1 equivalent of sodium dodecylsulfate, read-out: t1/2 at pH 10.5) was 10.8 min and the half-life (solution with 3 equivalents sodium dodecylsulfate, pH 10.5, 40°C, pH 10.5, with 3 equivalents of sodium dodecylsulfate, read-out: t1/2 at pH 10.5) was 63 min. It also gave a half-life (solution with 5 equivalents sodium dodecylsulfate, pH 10.5, 40°C, pH 10.5, with 5 equivalents of sodium dodecylsulfate, read-out: t1/2 at pH 10.5) of 93 min and a half-life (solution with 10 equivalents sodium dodecylsulfate, pH 10.5, 40°C, pH 10.5, with 10 equivalents of sodium dodecylsulfate, read-out: t1/2 at pH 10.5) of 104 min.
For `CCCCCCCCCCCC[N+](C)(C)CC(=O)OC/C=C(\C)CCC=C(C)C.[Br-]` [C12 BEG, Geranyloxycarbonyl-N,N-dimethyl-N-dodecylmethanaminium bromide], the “kobs at pH 8.5” value (40°C, alone) was >30 min^-1, the k [5] was >100 000 mol^- ^1.l.min^-1 and the “kobs at pH 8.5” value [5] was >0.3 min^-1. The k [6] was 20 333 mol^- ^1.l.min^-1, the “kobs at pH 8.5” value [6] was 0.0643 min^-1 and the k [7] was 904 mol^- ^1.l.min^-1. The “kobs at pH 8.5” value [7] was 0.00286 min^-1, the k (40°C, pH 10.5, 1.25 10^-2 mol/l, alone) was >100 000 mol^- ^1.l.min^-1 and the k (40°C, pH 10.5, 10^-3 mol/l, alone) was >15000 mol^- ^1.l.min^-1. For the same molecule, the k (40°C, pH 10.5, alone) was >100 000 mol^- ^1.l.min^-1, the k obs (40°C, pH 10.5, high betaine ester concentration 1.25 10^-2 mol/l, alone) was >30 min⁻¹ and the k obs (40°C, pH 10.5, lower concentration 10^-3 mol/l, alone) was >5 min⁻¹. It also gave a k (40°C, pH 10.5, with 1 equivalent sodium dodecylsulfate) of 5.3 mol^- ^1.l.min^-1, a k (40°C, pH 10.5, with 1 equivalent sodium hexadecylsulfonate) of 1580 mol^- ^1.l.min^-1 and a k (40°C, pH 10.5, with 2 equivalents sodium stearate) of 1265 mol^- ^1.l.min^-1. The “kobs at pH 8.5” value (40°C, with 1 equivalent sodium dodecylsulfate) was 0.0017 min^-1, the “kobs at pH 8.5” value (40°C, with 1 equivalent sodium hexadecylsulfonate) was 0.5 min^-1 and the “kobs at pH 8.5” value (40°C, with 2 equivalents sodium stearate) was 0.4 min^-1. The half-life at 0.0125 mol/l (buffer, pH 8.5, 40°C, pH 8.5, 1.25 10^-2 mol/l, alone, read-out: t1/2 pH 8.5) was < 2 min, the half-life at 0.0125 mol/l (buffer, pH 10.5, 40°C, pH 10.5, 1.25 10^-2 mol/l, alone, read-out: t1/2) was < 0.0333 min and the half-life (buffer, pH 10.5, 40°C, pH 10.5, 10^-3 mol/l, alone, read-out: t1/2) was < 0.167 min. The half-life (buffer, pH 10.5, 40°C, pH 10.5, alone, read-out: t1/2 pH 10.5) was < 0.0333 min, the “rate of hydrolysis at pH neutral (∼7)” value (compared with a normal ester, C12 BEG 1.25 10^-2 mol/l) was “far faster than for a normal ester” and the profile of hydrolysis was “very dependent on pH”. It also gave a half-life at 0.0125 mol/l (sodium stearate solution in distilled water (1 equivalent), pH 8.5, 40°C, pH 8.5, with 1 equivalent sodium stearate, read-out: t1/2 pH 8.5) of 11 min, a half-life at 0.0125 mol/l (sodium stearate solution in distilled water (2 equivalents), pH 8.5, 40°C, pH 8.5, with 2 equivalent sodium stearate, read-out: t1/2 pH 8.5) of 243 min and a half-life at 0.0125 mol/l (sodium stearate solution in distilled water (2 equivalents), pH 10.5, 40°C, pH 10.5, with 2 equivalents sodium stearate, read-out: t1/2 pH 10.5) of 1.7 min. For the same molecule, the half-life (solution with 1 equivalent sodium dodecylsulfate, pH 10.5, 40°C, pH 10.5, with 1 equivalent sodium dodecylsulfate, read-out: t1/2 pH 10.5) was 414 min and the half-life (solution with 1 equivalent sodium hexadecylsulfonate, pH 10.5, 40°C, pH 10.5, with 1 equivalent sodium hexadecylsulfonate, read-out: t1/2 pH 10.5) was 1.4 min.
`CCCCCCCCCCCCOS(=O)(=O)[O-].CCCCCCCCCCCC[N+](C)(C)CC(=O)OC/C=C(\C)CCC=C(C)C` [C12 BEG/DS] showed a k [8] of 10.6 mol^- ^1.l.min^-1, a k obs [8] of 0.0034 min⁻¹ and a t1/2 (40°C, pH 10.5, 1.25 10^-2 mol/l, with 2 equivalents of sodium dodecylsulfate, 12500 µM) of 206 min. It also gave a k [9] of 26.1 mol^- ^1.l.min^-1, a k obs [9] of 0.0083 min⁻¹ and a t1/2 (40°C, pH 10.5, 1.25 10^-2 mol/l, with 4 equivalents of sodium dodecylsulfate, 12500 µM) of 84 min. The k [10] was 32.8 mol^- ^1.l.min^-1, the k obs [10] was 0.0104 min⁻¹ and the t1/2 (40°C, pH 10.5, 1.25 10^-2 mol/l, with 9 equivalents of sodium dodecylsulfate, 12500 µM) was 67 min. It also gave a k [11] of 37 mol^- ^1.l.min^-1, a k obs [11] of 0.01169 min⁻¹ and a t1/2 (40°C, pH 10.5, 10^-3 mol/l, with mixture anionic/nonionic, 1000 µM) of 59 min. It also gave a k [12] of 28.6 mol^- ^1.l.min^-1, a k obs [12] of 0.0095 min⁻¹ and a t1/2 (40°C, pH 10.5, 10^-3 mol/l, with sodium dodecylsulfate only, 1000 µM) of 77 min. The k [13] was 229 mol^- ^1.l.min^-1, the k obs [13] was 0.0724 min⁻¹ and the t1/2 (40°C, pH 10.5, ion pair 1.25 10^-2 mol/l alone, 12500 µM) was 9.6 min. For the same molecule, the k [14] was 423.7 mol^- ^1.l.min^-1, the k obs [14] was 0.134 min⁻¹ and the t1/2 (40°C, pH 10.5, ion pair 10^-3 mol/l alone, 1000 µM) was 5.2 min.
